# In US20240415845A1, “Compositions of Iboga Alkaloids and Methods of Treatment” (priority 2022, published 2024):
# What was measured:
# [1] = tested on: special operations veterans with combat and/or blast exposure; assay: Hamilton-Anxiety Rating Scale (HAM-A); assay type: in vivo, human
# From the text: The pre-specified primary outcome was change in the World Health Organization Disability Assessment Schedule 2.0 (WHODAS) (Gold L. H. et al., J. Am. Acad. Psychiatry Law 42, 9 (2014)) from baseline to post-treatment, with change from baseline to the one-month follow-up a secondary outcome. Additional pre-specified secondary outcomes included post-treatment changes on the Clinician Administered PTSD Scale (CAPS-5; Weathers, F. W. et al., Psychol. Assess., 30, 383-395 (2018)), Montgomery-Åsberg Depression Rating Scale (MADRS; Montgomery, S. A., Br. J. Psychiatry J. Ment. Sci., 134, 382-389 (1979)) and the Hamilton-Anxiety Rating Scale (HAM-A; Bruss, G. S., et al., Psychiatry Res., 53, 191-202 (1994)). […] An additional dose of magnesium was administered approximately 12 hours later. To assess the significance of post-treatment changes, linear mixed effects (LME) models were used for each outcome measure. False Discovery Rate (FDR; Benjamini, Y. et al., J. R. Stat. Soc. Ser. B Methodol., 57, 289-300 (1995)) was applied to correct for multiple comparisons.
# To further assess changes in comorbid psychiatric symptoms identified by the models, mean percent reduction, response rate, and remission rate according to the CAPS-5, MADRS and HAM-A (Table 1) were calculated. Response on the CAPS-5, MADRS, and HAM-A was defined as a reduction of at least 10 points (Mitchell, J. M. et al., Nat. Med. 27, 1025-1033(2021)), 50% (Leucht, S. et al., J. Affect. Disord. 210, 287-293 (2017)), and 50% (McIntyre, A. et al., Depress. Anxiety 24, 487-494 (2007)), respectively; remission as loss of diagnosis and a total score below 12 (Mitchell, J. M. et al. supra), <8 (Leucht, S. et al. supra), and <8(McIntyre, A. et al., supra), respectively. One participant's baseline scores met criteria for remission in all three scales and so were excluded from the calculation of response and remission rates, leaving 29 participants in these specific analyses.
# With subjects in the fasting state, an intravenous infusion of 1 gram of magnesium sulfate was administered 1-2 hours prior to treatment. […] Medical staff (MD, RN, or EMT) were onsite at a ratio of at least 1 staff per 2 patients throughout treatment for monitoring and management, but no specific coaching or psychological support was provided during treatment.
# Clinician administered scales included CAPS-5 (Clinician-administered PTSD Scale for DSM-5), which is a gold standard assessment of PTSD symptom severity; MADRS (Montgomery-Asberg Depression Rating Scale), a measure for depressive symptom severity: and Hamilton-Anxiety Rating Scale (HAM-A) (Shear, M. K. et al., Depress. Anxiety 13, 166-178 (2001)) a measure for anxiety symptom severity: SCID-5 (Structured Clinical Interview for DSM-5) Overview for a historical and environmental context of symptom presentation: MINI DSM-5 (Mini International Neuropsychiatric Interview from DSM-5) for a structured psychodiagnostics assessment: BAT-L (Boston Assessment of TBI-Lifetime) for a lifetime history of TBI and blast exposure: and Ohio State University TBI Identification Method (Short Form) for a lifetime history of TBI. MADRS testing provides an indication of depressive symptoms, CAPS-5 provides an indication of PTSD and SIGH-A provides an indication of anxiety. Collectively these overlap to provide indication of mood, concentration, sleep and tension.
# To assess anxiety symptoms, the Hamilton Anxiety Rating Scale was used. This scale includes 14-items assessing both psychic and physical symptoms of anxiety. Items are rated on a scale from 0 (no symptoms) to 4 (severe symptoms). Total score ranges were: no or minimal anxiety (≤7), mild (8-14), moderate (15-23), and severe anxiety symptoms (≥24) (Matza et al., Int. J. Methods Psychiatr. Res. 19, 223-232 (2010))).
# [2] = tested on: special operations veterans with combat and/or blast exposure; assay: Self-reported alcohol consumption and intoxication; assay type: in vivo, human; settings: one month following treatment
# Protocol: Alcohol consumption in the enrolled subjects was also evaluated. At baseline, 11 of the 30 enrolled subjects reported drinking at least four days per week and 12 of the 30 enrolled subjects reported drinking at least four days per week over the last month. Some of the subjects reported drinking daily. One month following treatment, none (zero) of the enrolled subjects reported drinking more than three times per week. 28 of the 30 enrolled subjects reported drinking less than twice per week over the past month.
# Intoxication by alcohol was also evaluated in the enrolled subjects. At baseline, 9 of the 30 enrolled subjects reported being intoxicated more than once over the last 30 days, with some subjects reporting being intoxicated for 25 of the last 30 days. One month following treatment, one participant reported four episodes of intoxication after reporting 23 episodes at baseline.
# [3] = 1-mo. post, only participants meeting relevant MINI diagnostic criteria
# [4] = 1-mo. post, only participants with mild TBI
# [5] = 1-wk. post, only participants meeting relevant MINI diagnostic criteria
# [6] = 1-wk. post, only participants with mild TBI
smiles,measurement,setting,value
"CCC1CC2CC3c4[nH]c5ccc(OC)cc5c4CCN(C2)C13 (stereo not shown) [ibogaine, Ibogaine]",HAM-A % Reduction vs Baseline,[1]; [3],80% ± 23%
same,HAM-A Remission Rate,[1]; [3],71%
same,HAM-A Response Rate,[1]; [3],86%
same,HAM-A score,"[1]; 1-mo. post, only participants meeting relevant MINI diagnostic criteria at baseline (N 14), baseline 23.8 ± 7.6",5.1
same,HAM-A % Reduction vs Baseline,[1]; [4],82% ± 21%
same,HAM-A Remission Rate,[1]; [4],85%
same,HAM-A Response Rate,[1]; [4],93%
same,HAM-A score,"[1]; 1-mo. post, only participants with mild TBI (N 28), baseline 20.7 ± 8.6",3.7
same,HAM-A score,"[1]; 1-wk post, only participants meeting relevant MINI diagnostic criteria at baseline (N 14), baseline 23.8 ± 7.6",4.2
same,HAM-A % Reduction vs Baseline,[1]; [5],82% ± 14%
same,HAM-A Remission Rate,[1]; [5],86%
same,HAM-A Response Rate,[1]; [5],100%
same,HAM-A % Reduction vs Baseline,[1]; [6],82% ± 19%
same,HAM-A Remission Rate,[1]; [6],89%
same,HAM-A Response Rate,[1]; [6],96%
same,HAM-A score,"[1]; 1-wk. post, only participants with mild TBI (N 28), baseline 20.7 ± 8.6",3.3
same,"HAM-A, effect size D","[1]; baseline vs 1-mo. post, only participants meeting relevant MINI diagnostic criteria (N 14)",2.33
same,"HAM-A, effect size D","[1]; baseline vs 1-mo. post, only participants with mild TBI (N 28)",2.07
same,"HAM-A, effect size D","[1]; baseline vs 1-wk post, only participants with mild TBI (N 28)",2.02
same,"HAM-A, effect size D","[1]; baseline vs 1-wk. post, only participants meeting relevant MINI diagnostic criteria (N 14)",2.52
same,"HAM-A, effect size D","[1]; baseline vs one-month post, all participants",2.13
same,"HAM-A, effect size D","[1]; baseline vs one-week post, all participants",2.06
same,HAM-A anxiety symptom severity score,"[1]; four days after (immediate post) treatment, baseline about 21 (FIG. 5A)",about 7
same,HAM-A effect size,[1]; four days after treatment relative to baseline (FIG. 5A),1.81
same,subjects scoring below the mild anxiety range (HAM-A),[1]; one month post treatment (FIG. 5B),90%
same,HAM-A effect size,[1]; one month post treatment relative to baseline (FIG. 5A),1.82
same,HAM-A Remission Rate,"[1]; one-month post, 29 participants, remission = score <8",83%
same,HAM-A Response Rate,"[1]; one-month post, 29 participants, response = reduction of at least 50%",93%
same,HAM-A score,"[1]; one-month post, all participants, baseline 20.8 ± 8.5, mean ± SD",3.9
same,HAM-A % Reduction vs Baseline,"[1]; one-month post, all participants, mean ± SD",81% ± 21%
same,HAM-A Remission Rate,"[1]; one-week post, 29 participants, remission = score <8",86%
same,HAM-A Response Rate,"[1]; one-week post, 29 participants, response = reduction of at least 50%",97%
same,HAM-A score,"[1]; one-week post, all participants, baseline 20.8 ± 8.5, mean ± SD",3.6
same,HAM-A % Reduction vs Baseline,"[1]; one-week post, all participants, mean ± SD",81% ± 19%
same,episodes of intoxication reported by one participant,[2]; 23 episodes at baseline,four
same,enrolled subjects reporting drinking more than three times per week,"[2]; 30 subjects, at baseline 11 of 30 drank at least four days per week",zero
same,enrolled subjects reporting drinking less than twice per week over the past month,[2]; of the 30 enrolled subjects,28
